Molecular target: T1, GST-MCAK fusion protein (Homo sapiens, UniProt Q99661)
T1 construct: The GST-MCAK fusion protein was purchased Cytoskeleton (cat. #MK01); fused on or other part: GST tag (N-terminal, by the vendor's product)
Experiment: MCAK ATPase in vitro assay
Type: biochemical
Conditions: GST-MCAK 100 nM, 1 mM sodium ATP, 2 μM microtubules, RT 50 min, 5% DMSO
Protocol: V. MCAK ATPase in Vitro Assay
Reagents: The GST-MCAK fusion protein was purchased Cytoskeleton (cat. #MK01). Tubulin from bovine brain was purchased from Cytoskeleton (HTS-grade), BSA from Sigma (cat. # 3059). chloramphenicol from Boehringer Mannheim (cat. # 634433), ampicillin from Fisher Biotech (cat. # BP1760-25) and Paclitaxel from Cytoskeleton (cat. # TXD01)
Microtubule preparation: For the preparation of microtubules, purified tubulin (>97% MAP-free) at 1 mg/ml was polymerized at 37° C. in the presence of 10 μM paclitaxel, 1 mM DTT, 1 mM GTP in BRB80 buffer (80 mM K-PIPES, 1 mM EGTA, 1 mM MgCl2 at pH 6.8). The resulting microtubules were separated from non-polymerized tubulin by ultracentrifugation and removal of the supernatant. The pellet, containing the microtubules, was gently resuspended in 1×BRB 80 containing 10 μM paclitaxel, 1 mM DTT, 50 μg/ml ampicillin, 5 μg/ml chloramphenicol in BRB80.
MCAK ATPase assay: GST-MCAK at 100 nM was incubated with 1 mM sodium ATP, 2 μM microtubules with 2 μM paclitaxel (concentration refers to tubulin dimers), and inhibitor at RT for 50 min in reaction buffer (80 mM K-PIPES, 1 mM K-EGTA, 2 mM MgCl2, 1 mM DTT, and 100 μg/ml BSA, pH 6.9). Compounds were dissolved in DMSO, and the final DMSO concentration in the reaction was 5%. The reaction was terminated with a 2-fold dilution of the reaction with 2× stop buffer (50 mM EDTA/1.8 M KCl). The free phosphate from the ATP hydrolysis reaction was measured via a quinaldine red/ammonium molybdate assay by adding 1.5 volumes of quench C within 24 hrs of addition of stop buffer. (Cogan, E. B., Birrell, G. B., Griffith, O. H. (1999) Analytical Biochemistry 271, p 29). Quench C was prepared by adding 1 volume of quench B (12.3 mM ammonium molybdate tetrahydrate in 1.15 M sulfuric acid) to 2 volumes of quench A (0.1 mg/ml quinaldine red, 0.14% polyvinyl alcohol). The plate was incubated for 5 min at room temperature, and the absorbance of the phosphomolybdate complex was measured at 540 nm.

T1 sequence (Q99661 258-588 limits assumed): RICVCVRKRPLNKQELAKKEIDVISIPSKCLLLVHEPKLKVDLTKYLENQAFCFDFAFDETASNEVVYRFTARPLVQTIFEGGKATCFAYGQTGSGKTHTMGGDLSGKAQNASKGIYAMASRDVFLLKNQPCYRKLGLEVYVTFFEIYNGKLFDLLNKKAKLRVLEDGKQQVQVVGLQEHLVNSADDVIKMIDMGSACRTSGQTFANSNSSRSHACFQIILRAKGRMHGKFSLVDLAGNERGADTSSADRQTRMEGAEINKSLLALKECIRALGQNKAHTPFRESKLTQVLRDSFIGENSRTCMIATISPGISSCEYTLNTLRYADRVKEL

Row | Compound | IC50 [µM]
1 | CC(c1ccccc1)c1nc(-c2ccc([N+](=O)[O-])cc2)cs1 (centres unmarked) [Compound 1-5, 4-(4-nitrophenyl)-2-(1-phenylethyl)-1,3-thiazole] | ≤ 50
2 | c1ccc(C2(c3nc(-c4cccnc4)cs3)CC2)cc1 [Compound 1-10, 3-[2-(1-phenylcyclopropyl)-1,3-thiazol-4-yl]pyridine] | ≤ 50
3 | N#Cc1ccc(-c2csc(C3(c4c(F)cccc4F)CC3)n2)cc1 [Compound 1-15, 4-{2-[1-(2,6-difluorophenyl)cyclopropyl]-1,3-thiazol-4-yl}benzonitrile] | ≤ 50
4 | N#Cc1ccc(-c2csc(C3(c4ccccc4)CC3)n2)cn1 [Compound 2-2, 5-[2-(1-phenylcyclopropyl)-1,3-thiazol-4-yl]pyridine-2-carbonitrile] | ≤ 50
5 | [O-][n+]1ccc(-c2csc(C3(c4ccccc4)CC3)n2)cc1 [Compound 2-3, 4-[2-(1-phenylcyclopropyl)-1,3-thiazol-4-yl]-1lambda~5~pyridin-1-ol] | ≤ 50
6 | Oc1ccc(-c2csc(C3(c4ccccc4)CC3)n2)cc1O [Compound 3-2, 4-(3,4-dihydroxyphenyl)-2-(1-phenylcyclopropyl)-1,3-thiazole] | ≤ 50
7 | Oc1cnccc1-c1csc(C2(c3ccccc3)CC2)n1 [Compound 3-3, 4-[2-(1-phenylcyclopropyl)-1,3-thiazol-4-yl]pyridin-3-ol] | ≤ 50
8 | Oc1ccc(-c2csc(C3(c4ccccc4)CC3)n2)cc1 [Compound 3-4, 4-[2-(1-phenylcyclopropyl)-1,3-thiazol-4-yl]phenol] | ≤ 50
9 | Oc1cccc(-c2csc(C3(c4ccccc4)CC3)n2)c1 [Compound 3-5, 3-[2-(1-phenylcyclopropyl)-1,3-thiazol-4-yl]phenol] | ≤ 50
10 | OCc1cccc(-c2csc(C3(c4ccccc4)CC3)n2)c1 [Compound 5-1, {3-[2-(1-phenylcyclopropyl)-1,3-thiazol-4-yl]phenyl}methanol] | ≤ 50
11 | Clc1cccc(C2(c3nc(-c4ccncc4)cs3)CC2)c1 [Compound 9-10, 4-{2-[1-(3-chlorophenyl)cyclopropyl]-1,3-thiazol-4-yl}pyridine] | ≤ 50
12 | Fc1ccccc1C1(c2nc(-c3ccncc3)cs2)CC1 [Compound 9-11, 4-{2-[1-(2-fluorophenyl)cyclopropyl]-1,3-thiazol-4-yl}pyridine] | ≤ 50
13 | Clc1cc(-c2csc(C3(c4ccccc4)CC3)n2)ccn1 [Compound 9-13, 2-chloro-4-[2-(1-phenylcyclopropyl)-1,3-thiazol-4-yl]pyridine] | ≤ 50
14 | Cc1cccc(C2(c3nc(-c4ccncc4)cs3)CC2)c1 [Compound 9-14, 4-{2-[1-(3-methylphenyl)cyclopropyl]-1,3-thiazol-4-yl}pyridine] | ≤ 50
